# Non-standard residues stand in square brackets, D forms with d. No end group written: not given here. tri‑branched mPEG‑MAL 50 kDa = tri-branched maleimide-activated monomethoxy PEG, 50 kDa; Aib = CC(C)(N)C(=O)O
# What was measured:
# Format in all cases: in vivo
# [1] = tested on: obesity animal model (C57BL/6 mice, 60% high-fat diet); assay: intraperitoneal glucose tolerance test (ipGTT) in obesity model after 2-week administration (Experimental Example 3); set-up: blood glucose in ipGTT: unit not given here; settings: after 2 weeks of 20 nmol/kg s.c. once every other day
# Method: This experiment was performed in the same manner as in Experimental Example 2, and then the glucose tolerance was evaluated in a mouse model using an intraperitoneal glucose tolerance test (ipGTT).
# After the 2-weeks administration of the drugs was completed in the same manner as in Experimental Example 2, 2 g/kg of glucose was administered intraperitoneally to measure a change in blood glucose with the elapse of time (0, 15, 30, 60, 90, and 120 minutes).
# db/db mice [2] = assay: blood glucose and body weight in db/db mice (Experimental Example 4)
# Method: First of all, the conjugate of Example 2 was administered to 7-week-old db/db mice by subcutaneous injection at a dose of 20 nmol/kg once every other day for 12 days. For 12 days when the drug was administered, the changes in blood glucose and body weights were measured once every other day after the drug administration.
# db/db mice [3] = assay: glycated hemoglobin (HbA1c) in db/db mice after administration; settings: db/db mice after administration of 20 nmol/kg s.c. once every other day; FIG. 3
# Method: Next, to perform an intraperitoneal glucose tolerance test (ipGTT), 2 g/kg of glucose was administered intraperitoneally after the 12-day administration of the drug, and a change in blood glucose with the elapse of time (0, 15, 30, 60, 90, and 120 minutes) was measured. To determine a degree of long-term change in average blood glucose level, a level of glycated hemoglobin (HbA1c) was also measured after the drug administration.
# [4] = tested on: obesity animal model (C57BL/6 mice, 60% high-fat diet); assay: final body weight with different dose and dosing frequency in obesity model (Experimental Example 5); settings: FIG. 4
# Method: First, an obesity animal model was prepared by feeding a 60% high-fat diet to normal C57BL/6 mice (approximately 6 weeks old) for approximately 24 weeks, and increasing the body weights of the mice to approximately 50 g in average. After 2 weeks, the final body weights of the mice were measured.
# [5] = tested on: obesity animal model (C57BL/6 mice, 60% high-fat diet); assay: blood glucose in obesity model, Examples 2 and 6 (Experimental Example 6); settings: 20 nmol/kg s.c. once every other day for 2 weeks; FIG. 5
# Method: (§1) To check a preventing or therapeutic effect of the conjugates of Examples 2 and 6, which had different amino acid sequences, on obesity or diabetes, an animal model of obesity was prepared by feeding a 60% high-fat diet to normal C57BL/6 mice (approximately 6 weeks old) for approximately 24 weeks, and increasing the body weights of the mice to approximately 50 g in average. Thereafter, each of the conjugates of Examples 2 or 6 was administered by subcutaneous injection at a dose of 20 nmol/kg once every other day for 2 weeks. As the control, PBS was administered instead of the conjugates of Examples. For 2 weeks when the conjugates of Examples 2 or 6 were administered, changes in blood glucose with time were measured. Also, to perform an intraperitoneal glucose tolerance test (ipGTT), 2 g/kg of glucose was administered intraperitoneally after the 2-week administration of the drug, and changes in blood glucose with the elapse of time (0, 15, 30, 60, 90, and 120 minutes) were measured.
# [6] = tested on: obesity animal model (C57BL/6 mice, 60% high-fat diet); assay: ipGTT in obesity model, Examples 2 and 6 (Experimental Example 6); settings: 2 g/kg glucose i.p. after 2 weeks of 20 nmol/kg s.c. once every other day; FIG. 6
# Method: as §1
# [7] = tested on: animal model of non-alcoholic fatty liver diseases (C57BL/6 mice, 60% high-fat diet); assay: non-alcoholic fatty liver disease model, 60% high-fat diet (Experimental Example 7); settings: 20 nmol/kg s.c. once every other day for 2 weeks
# Method: Specifically, first of all, a laboratory animal model of non-alcoholic fatty liver diseases was prepared by feeding a 60% high-fat diet to normal C57BL/6 mice (approximately 6 weeks old) for approximately 24 weeks, and increasing the body weights of the mice to approximately 50 g in average. Thereafter, the conjugate of Example 2 was administered by subcutaneous injection at a dose of 20 nmol/kg once every other day for 2 weeks. […] After the 2-week administration of the drug, blood was collected from the mice to measure a serum cholesterol concentration, and the livers were extracted, weighed, embedded in paraffin, and then microtomed into thin slices. Thereafter, the liver biopsy was conducted using a hematoxylin & eosin (H&E).
# [8] = tested on: animal model of non-alcoholic fatty liver diseases (C57BL/6 mice, high-trans-fat diet); assay: non-alcoholic fatty liver disease model, high-trans-fat diet (Experimental Example 8); settings: 20 nmol/kg s.c. once every three days for 4 weeks, also lowered vs liraglutide
# Method: First of all, a laboratory animal model of non-alcoholic fatty liver diseases was prepared by feeding a high-trans-fat diet, which contained 40% high fats, 20% fructose, and 2% cholesterol, to normal C57BL/6 mice (approximately 6 weeks old) for approximately 16 weeks. Thereafter, the conjugate of Example 2 was administered by subcutaneous injection at a dose of 20 nmol/kg once every three days for 4 weeks. […] After the 4-week experiment was completed, a level of serum cholesterol, the liver weights, and the hepatic triglycerides (hepatic TGs) were measured.
# [9] = 20 nmol/kg s.c. once every other day for 12 days
# [10] = day 0, 20 nmol/kg s.c. once every other day
# [11] = day 2, 20 nmol/kg s.c. once every other day
# [12] = day 4, 20 nmol/kg s.c. once every other day
# [13] = day 6, 20 nmol/kg s.c. once every other day
# [14] = day 8, 20 nmol/kg s.c. once every other day
# [15] = day 10, 20 nmol/kg s.c. once every other day
# [16] = day 12, 20 nmol/kg s.c. once every other day
substance,measurement,setting,value
Example 2: Conjugate of polypeptide H(Aib)QGTFTSDYSKYLDEQAAKEFVQWLMNTC (SEQ ID NO. 2) and tri-branched mPEG-MAL (MW: 50 kDa) (H[Aib]QGTFTSDYSKYLDEQAAKEFVQWLMNTC(tri‑branched mPEG‑MAL 50 kDa); lactam (positions not given here); not fully specified (bridges); printed as H(Aib)QGTFTSDYSKYLDEQAAKEFVQWLMNTC),blood glucose in ipGTT,[1]; 0 min after 2 g/kg glucose i.p.,40
same,blood glucose in ipGTT,[1]; 15 min after 2 g/kg glucose i.p.,216
same,blood glucose in ipGTT,[1]; 30 min after 2 g/kg glucose i.p.,172
same,blood glucose in ipGTT,[1]; 60 min after 2 g/kg glucose i.p.,61
same,blood glucose in ipGTT,[1]; 90 min after 2 g/kg glucose i.p.,48
same,blood glucose in ipGTT,[1]; 120 min after 2 g/kg glucose i.p.,44
same,increase in blood glucose in ipGTT vs non-treated group,[1],an increase in blood glucose was significantly reduced
same,body weight vs non-treated group,db/db mice [2]; [9],body weight loss was observed
same,level of blood glucose vs non-treated group,db/db mice [2]; [9],a level of blood glucose was lowered
same,Blood glucose,db/db mice [2]; [10],100%
same,Body weight,db/db mice [2]; [10],100%
same,Blood glucose,db/db mice [2]; [11],88%
same,Body weight,db/db mice [2]; [11],96%
same,Blood glucose,db/db mice [2]; [12],34%
same,Body weight,db/db mice [2]; [12],91%
same,Blood glucose,db/db mice [2]; [13],25%
same,Body weight,db/db mice [2]; [13],86%
same,Blood glucose,db/db mice [2]; [14],17%
same,Body weight,db/db mice [2]; [14],84%
same,Blood glucose,db/db mice [2]; [15],17%
same,Body weight,db/db mice [2]; [15],79%
same,Blood glucose,db/db mice [2]; [16],16%
same,Body weight,db/db mice [2]; [16],76%
same,level of glycated hemoglobin (HbA1c),db/db mice [3],significantly lower a level of glycated hemoglobin
same,effect on body weight loss,[4]; 20 nmol/kg s.c. once every other day for 2 weeks,significant effect on the body weight loss
same,effect on body weight loss with extended interval,[4]; 40 nmol/kg s.c. once a week for 2 weeks,the same effect on the body weight loss
same,dose dependence of body weight loss,[4]; 20 vs 40 nmol/kg s.c. once every other day for 2 weeks,dose-dependent response
same,level of blood glucose vs control,[5],a level of blood glucose was lowered
same,increase in blood glucose in ipGTT vs control,[6],an increase in blood glucose was significantly reduced
same,hepatic steatosis in liver biopsy vs non-treated group,"[7]; H&E, also reduced vs liraglutide, FIG. 9",significantly reduced
same,level of serum cholesterol vs non-treated group,"[7]; also lowered vs liraglutide, FIG. 7",significantly lowered
same,liver weights vs non-treated group,"[7]; also lowered vs liraglutide, FIG. 8",significantly lowered
same,level of serum cholesterol vs non-treated group,[8]; FIG. 10,significantly lowered
same,liver weights vs non-treated group,[8]; FIG. 11,significantly lowered
same,hepatic triglycerides vs non-treated group,[8]; FIG. 12,significantly lowered

# From patent US12338270B2, “Pharmaceutical composition comprising polypeptide” (D&D Pharmatech Inc., priority 2018, dated 2025)
